Data published in ChEMBL document CHEMBL3808329, “Increase of rutin antioxidant activity by generating Maillard reaction products with lysine” (Bioorg Med Chem Lett, 2016).
Calls of active or inactive are those of the source. The rule behind the calls is not given here.

What was measured:
[1] = Antioxidant activity assessed as DPPH scavenging activity at 60 ug/ml and 120 degC after 4 hrs by spectrophotometric method; format: physicochemical
[2] = Retention time of compound by HPLC method; format: physicochemical
[3] = Antioxidant activity assessed as DPPH scavenging activity at 20 to 100 ug/ml after 4 hrs in presence of lysine by spectrophotometric method; format: physicochemical
[4] = Antioxidant activity assessed as DPPH scavenging activity at 20 to 100 ug/ml and 120 degC after 4 hrs by spectrophotometric method; format: physicochemical
[5] = Drug metabolism assessed as increase in total phenolics at 120 degC after 4 hrs in presence of lysine by Folin-Ciocalteu method; format: physicochemical
[6] = system: HepG2; test: Antioxidant activity in human HepG2 cells assessed as reduction in Cu2+ induced oxidative stress at 50 to 200 ug/ml preincubated for 30 mins at 120 degC using DCFH-DA in presence of lysine by fluorescence assay; format: functional, cell-based
[7] = Metal chelating activity assessed as Cu2+ reducing activity at 120 degC after 4 hrs in presence of lysine; format: physicochemical
[8] = system: HepG2; test: Antioxidant activity in human HepG2 cells assessed as reduction in Cu2+ induced oxidative stress at 50 to 200 ug/ml preincubated for 30 mins using DCFH-DA by fluorescence assay; format: functional, cell-based
[9] = system: HepG2; test: Antioxidant activity in human HepG2 cells assessed as increase in Cu/Zn SOD activity at 200 ug/ml at 120 degC after 4 hrs relative to control; format: functional, cell-based
[10] = system: HepG2; test: Induction of Cu/Zn SOD gene expression in human HepG2 cells at 100 to 300 ug/ml at 120 degC after 4 hrs in presence of lysine by western blot analysis; format: functional, cell-based
[11] = system: HepG2; test: Antioxidant activity in human HepG2 cells assessed as reduction in Cu2+ induced oxidative stress at 50 to 200 ug/ml preincubated for 30 mins in presence of lysine using DCFH-DA by fluorescence assay; format: functional, cell-based
[12] = Antioxidant activity assessed as DPPH scavenging activity at 60 to 100 ug/ml and 120 degC after 4 hrs in presence of lysine by spectrophotometric method; format: physicochemical
[13] = system: HepG2; test: Antioxidant activity in human HepG2 cells assessed as increase in Cu/Zn SOD activity at 200 ug/ml in presence of lysine at 120 degC after 4 hrs relative to control; format: functional, cell-based

Activity [1] | Activity [3] | Activity [4] | Drug metabolism [5] | Activity [7] | Activity [12] | SMILES | Retention_time [2] | Activity [6] | inhibition [8] | Activity [9] | Activity [10] | inhibition [11] | Activity [13]
90.6% | – | – | – | – | – | O=C1O[C@H]([C@@H](O)CO)C(O)=C1O [ASCORBIC ACID] | – | – | – | – | – | – | –
– | Dose-dependent effect | – | metabolite_detected | Active | Active | C[C@@H]1O[C@@H](OC[C@H]2O[C@@H](Oc3c(-c4ccc(O)c(O)c4)oc4cc(O)cc(O)c4c3=O)[C@H](O)[C@@H](O)[C@@H]2O)[C@H](O)[C@H](O)[C@H]1O [RUTIN] | 8.94 min | Active | inactive | Active | Active | inactive | Active

Continued, molecule first:

SMILES | Activity [1] | Activity [3] | Activity [4] | Drug metabolism [5] | Activity [7] | Activity [12] | Retention_time [2] | Activity [6] | inhibition [8] | Activity [9] | Activity [10] | inhibition [11] | Activity [13]
NCCCC[C@H](N)C(=O)O [LYSINE] | – | – | – | – | – | – | 2.01 min | – | – | – | – | – | –
C[C@@H]1O[C@@H](N[C@@H](CCCCN)C(=O)O)[C@H](O)[C@H](O)[C@H]1O | – | Active | Active | metabolite_detected | Active | – | – | Active | – | – | – | – | –
NCCCC[C@H](N[C@@H]1O[C@H](CO)[C@@H](O)[C@H](O)[C@H]1O)C(=O)O | – | Active | Active | metabolite_detected | Active | – | – | Active | – | – | – | – | –
